Measurements from US6558951B1, “Maturation of dendritic cells with immune response modifying compounds” (3M Innovative Properties Company, priority 1999, dated 2003).

What was measured:
Format in all cases: cell-based, human
[1] = system: monocyte-derived dendritic cells (MO-DC); assay: MO-DC cell surface maturation marker expression by flow cytometry
Method: Generation of Monocyte-Derived Dendritic Cells (MO-DC). […] CD14^+ cells were purified by positive selection using CD14^+ microbeads in conjunction with the MiniMACS system (Miltenyi Biotech, Auborn, Calif.) by following the manufacturer's instructions. […] Fresh medium containing GM-CSF and IL-4 was added every three days. MO-DC were routinely used between days 7 and 8 of culture. As a control, depleted lymphocytes were cultured in the same fashion. In Vitro MO-DC Stimulation. […] Cells were subsequently analyzed by flow cytometry for the expression of various cell surface markers, and the cell culture supernatants were analyzed for various cytokines and chemokines by ELISA. Cell Surface and Intracellular Flow Cytometry. […] Cells (5-10^5) were incubated for 15 minutes incubation at 4° C. with purified IgD (Becton Dickinson) to block non-specific binding, and then the cells were stained for 30 minutes with the antibodies at 4° C. in PBS containing 10% FCS and 0.1% sodium azide. After washing in PBS, the cells were analyzed using a FACScan flow cytometer and Cell Quest software (Becton Dickinson).

[2] = system: syngeneic CD3-enriched peripheral blood T cells; assay: Autologous T cell activation by treated MO-DC (anamnestic response to tetanus toxoid)
Method: Autologous T Cell Activation. Autologous T cells and R-848-treated MO-DC were prepared as described for allogeneic T cell stimulation. MO-DC were cultured with R-848 [2 μg/ml] and tetanus toxoid [10 μg/ml] for 24 hours. The MO-DC were washed and cultured at graded doses with PBMC-derived CD3^+ T cells for 7 days. Cell proliferation and analysis were determined as described. Supernatants were also collected; from the same cultures prior to pulsing with [^3H]TdR and analyzed for IFN-γ and IL-5.
Cytokine Analysis. Cytokine levels were measured by ELISA. Human TNF-α, IL-12 (p40/p70), IFNγ, IL-4 and IL-2 kits were purchased from Genzyme (Cambridge, Mass.). Human IL-6 kits were obtained from Biosource International (Camarillo, Calif.). Human IL-5, IL-8, MIP-1α, MCP-1 and RANTES were purchased from R&D Systems. All ELISA were run according to manufacturer's specifications. IFN levels were; measured by bioassay (40). IFN-α and IFN-β specific antibodies were used to determine which type I IFN was present in the MO-DC supernatants. Results for all ELISAs are presented in pg/ml, whereas IFN results are presented in U/ml.

allogeneic T cells = assay: Allogeneic lymphocyte activation (primary MLR) by treated MO-DC: T cell proliferation and cytokines
Method: Allogeneic Lymphocyte Activation. T-cells were isolated using T-Cell Purification Columns according to manufacturer's specifications (R&D Systems, Minneapolis, Minn). […] Dendritic cells were subsequently washed, resuspended in cRPMI and added at various concentrations (1-32×10^3 per well) to purified responder T-cells (1×10^5 per well) in 96-well flat-bottomed microtiter plates (BD Labware) in a total volume of 200 μl. […] Each well received 1 μCi [^3H]TdR and was harvested 18 hours later. Results are presented as mean CPM±SEM of triplicate wells. […] Cytokine Analysis. Cytokine levels were measured by ELISA. […] Human IL-6 kits were obtained from Biosource International (Camarillo, Calif.). Human IL-5, IL-8, MIP-1α, MCP-1 and RANTES were purchased from R&D Systems. All ELISA were run according to manufacturer's specifications. […] IFN-α and IFN-β specific antibodies were used to determine which type I IFN was present in the MO-DC supernatants. Results for all ELISAs are presented in pg/ml, whereas IFN results are presented in U/ml.

[3] = system: monocyte-derived dendritic cells (MO-DC); assay: MO-DC cytokine and chemokine secretion (ELISA or bioassay of culture supernatants); conditions: for IFN-α: bioassay; for IFN-α / IL-6 / IL-8 / IL-12 / MCP-1 / MIP-1α / TNF-α: mean ± SEM
Method: Generation of Monocyte-Derived Dendritic Cells (MO-DC). PBMC were isolated with Histopaque HybriMax-1077 density gradient (Sigma) from healthy volunteers after obtaining informed consent. CD14^+ cells were purified by positive selection using CD14^+ microbeads in conjunction with the MiniMACS system (Miltenyi Biotech, Auborn, Calif.) by following the manufacturer's instructions. Purity, as assessed by flow cytometry, was greater than 90%. […] Fresh medium containing GM-CSF and IL-4 was added every three days. MO-DC were routinely used between days 7 and 8 of culture. As a control, depleted lymphocytes were cultured in the same fashion. In Vitro MO-DC Stimulation. […] Cells were subsequently analyzed by flow cytometry for the expression of various cell surface markers, and the cell culture supernatants were analyzed for various cytokines and chemokines by ELISA. Cytokine Analysis. Cytokine levels were measured by ELISA. […] Human IL-6 kits were obtained from Biosource International (Camarillo, Calif.). Human IL-5, IL-8, MIP-1α, MCP-1 and RANTES were purchased from R&D Systems. All ELISA were run according to manufacturer's specifications. […] IFN-α and IFN-β specific antibodies were used to determine which type I IFN was present in the MO-DC supernatants. Results for all ELISAs are presented in pg/ml, whereas IFN results are presented in U/ml.

[4] = 0.1 μg/ml, 24 hours, vs vehicle
[5] = MO-DC treated with 2 μg/ml and 10 μg/ml tetanus toxoid 24 hours, 7 days co-culture
[6] = MO-DC treated with 2 and 8 μg/ml, MLR supernatants, 96 hours
[7] = 0.1 μg/ml, 24 hours, MO-DC supernatant
[8] = 0.4 μg/ml, 24 hours, MO-DC supernatant
[9] = 2.0 μg/ml, 24 hours, MO-DC supernatant
[10] = 8.0 μg/ml, 24 hours, MO-DC supernatant
[11] = treatment time 1 hr, 2 μg/ml R-848 or 1 μg/ml LPS
[12] = treatment time 6 hr, 2 μg/ml R-848 or 1 μg/ml LPS
[13] = treatment time 24 hr, 2 μg/ml R-848 or 1 μg/ml LPS

CCOCc1nc2c(N)nc3ccccc3c2n1CC(C)(C)O [R-848, 4-amino-2-ethoxymethyl-α,α-dimethyl-1H-imidazo [4,5-c]quinoline-1-ethanol]
CD83 cell surface expression [1, 4]: no increase | CD86 cell surface expression [1, 4]: no increase | increase in CD40 expression over vehicle treated MO-DC ([1]; 2 μg/ml, 24 hours): 2 fold | increase in CD80 expression over vehicle treated MO-DC ([1]; 2 μg/ml, 24 hours): 2 fold | maximal average increase in CD80 expression (MFI) ([1]; 2 μg/ml, 24 hours): 3- to 4 fold | maximal average increase in CD86 expression (MFI) ([1]; 2 μg/ml, 24 hours): 3- to 4 fold | decrease in CD1a expression ([1]; 2 μg/ml, 24 hours, vs vehicle): not statistically significant | increase in cell surface HLA-DR expression ([1]; 2 μg/ml, 24 hours, vs vehicle): not quantitatively significant | culture time giving maximal DC maturation marker expression ([1]; 2 μg/ml, 24, 48, 72 and 96 hour stimulation examined): 24 h | CD86 expression ([1]; 0.4, 2 and 8 μg/ml, 24 hours, vs vehicle): Enhanced | cell surface expression of CD83 ([1]; 2 and 8 μg/ml, 24 hours, vs vehicle): Enhanced | CD83 expression ([1]; pulsed 6 hours, stained immediately, 2 μg/ml R-848 or 1 μg/ml LPS): significant increase | CD40, CD80, CD86 and HLA-DR expression ([1]; pulsed 6 hours, stained immediately, 2 μg/ml R-848 or 1 μg/ml LPS, vs medium control): not statistically significant | CD83 and CD40 expression ([1]; pulsed 6 hours, washed, re-cultured 18 hours, 2 μg/ml R-848 or 1 μg/ml LPS): significant increase | expression of CD83, CD80, CD86, CD40 or HLA-DR ([1]; pulsed one hour with 2 μg/ml R-848 or 1 μg/ml LPS, then stained): did not show enhanced expression | expression of CD83, CD80, CD86, CD40 or HLA-DR ([1]; pulsed one hour, washed, re-cultured 23 hours, 2 μg/ml R-848 or 1 μg/ml LPS): did not show enhanced expression | IFN-γ production vs MO-DC cultured only with tetanus toxoid antigen [2, 5]: 4- to 11 fold | increase of syngeneic T cell proliferation vs MO-DC not treated with R-848 [2, 5]: 2to 3 fold | IL-5 in culture supernatants ([2]; MO-DC treated with 2 μg/ml and 10 μg/ml tetanus toxoid, autologous MO-DC/T cell system): not detected | allogeneic T cell proliferation vs untreated MO-DC (allogeneic T cells; MO-DC treated for 6 hours): significantly enhanced | allogeneic T cell proliferation vs untreated MO-DC (allogeneic T cells; MO-DC treated for less than 6 hours): not significantly increased | enhancement of IFN-γ production vs untreated MO-DC cultures (allogeneic T cells; [6]): 2- to 3 fold | enhancement of IL-2 production vs untreated MO-DC cultures (allogeneic T cells; [6]): 2- to 3 fold | enhancement of IL-5 production vs untreated MO-DC cultures (allogeneic T cells; [6]): 2- to 3 fold | IL-2, IL-5 or IFN-γ production by T cells (allogeneic T cells; T cells cultured in the presence of compound, without added MO-DC): do not produce | IFN-α [3, 7]: 8 ± 3 U/ml | IL-6 [3, 7]: 20 ± 12 pg/mL | IL-8 [3, 7]: 425 ± 132 pg/mL | IL-12 [3, 7]: 70 ± 21 pg/mL | MCP-1 [3, 7]: 3603 ± 2158 pg/mL | MIP-1α [3, 7]: 57 ± 57 pg/mL | TNF-α [3, 7]: 6 ± 3 pg/mL | IFN-α [3, 8]: 8 ± 3 U/ml | IL-6 [3, 8]: 399 ± 208 pg/mL | IL-8 [3, 8]: 5125 ± 2430 pg/mL | IL-12 [3, 8]: 106 ± 27 pg/mL | MCP-1 [3, 8]: 4864 ± 2213 pg/mL | MIP-1α [3, 8]: 511 ± 314 pg/mL | TNF-α [3, 8]: 14 ± 4 pg/mL | stimulation time for maximal IL-12 secretion ([3]; 2 μg/ml R-848 or 1 μg/ml LPS): between six and twenty four hours | stimulation time for maximal TNF-α secretion ([3]; 2 μg/ml R-848 or 1 μg/ml LPS): between one and six hours | IFN-α [3, 9]: 27 ± 7 U/ml | IL-6 [3, 9]: 6729 ± 1888 pg/mL | IL-8 [3, 9]: 50092 ± 10385 pg/mL | IL-12 [3, 9]: 15984 ± 3860 pg/mL | MCP-1 [3, 9]: 12941 ± 5802 pg/mL | MIP-1α [3, 9]: 15412 ± 5244 pg/mL | TNF-α [3, 9]: 1540 ± 371 pg/mL | IFN-α [3, 10]: 41 ± 12 U/ml | IL-6 [3, 10]: 9690 ± 1269 pg/mL | IL-8 [3, 10]: 66988 ± 11863 pg/mL | IL-12 [3, 10]: 19640 ± 3966 pg/mL | MCP-1 [3, 10]: 16249 ± 7661 pg/mL | MIP-1α [3, 10]: 25956 ± 5782 pg/mL | TNF-α [3, 10]: 2208 ± 240 pg/mL | inhibition of induced IFN bioactivity by neutralizing IFN-α ([3]; MO-DC supernatants, IFN bioassay): greater than 95% | IL-12 [3, 11]: 65 ± 18 pg/mL | TNF-α [3, 11]: 32 ± 10 pg/mL | IL-12 [3, 12]: 4446 ± 2438 pg/mL | TNF-α [3, 12]: 1053 ± 707 pg/mL | IL-12 [3, 13]: 13153 ± 5484 pg/mL | TNF-α [3, 13]: 335 ± 201 pg/mL
